Data taken from patent publication US20230091848A1, “DISEASE DETECTION AND TREATMENT BASED ON PHENYLACETYL GLUTAMINE LEVELS” (The Cleveland Clinic Foundation, priority 2020, published 2023).

Assays:
HEL92.1.7 cells = test: Dynamic mass redistribution (DMR) in HEL92.1.7 cells; assay type: cell-based, human; settings: increasing concentrations
Experimental: (§1) Before proceeding for the experiments, cells were subjected to overnight incubation in reduced serum media opti-MEM. […] The cells were briefly centrifuged at room temperature at low speed (100 g for 10-15 sec) to allow settling down the cells at the bottom of the plate. After that, cells were allowed to temperature equilibrate for 1 h at room temperature prior to run DMR measurement. Firstly, basal DMR responses were graphed for around 15 min to obtain a baseline read that defines the zero level and also ensures the signal is stable. […] DMR response signal was recorded for 60-90 minutes post compound of interest addition.

MEG01 cells [1] = test: Dynamic mass redistribution (DMR) in MEG01 cells; assay type: cell-based, human
Experimental: as §1

α2B ADR = target: T1, α2B ADR (Homo sapiens, UniProt P18089); test: DMR in α2B-HEK293 (stable) cells; assay type: cell-based; settings: vs parental HEK293; PAGln 100 μM, B-HT933 50 μM
T1 construct: expressed in transfected cells
T1 sequence (P18089 1-450): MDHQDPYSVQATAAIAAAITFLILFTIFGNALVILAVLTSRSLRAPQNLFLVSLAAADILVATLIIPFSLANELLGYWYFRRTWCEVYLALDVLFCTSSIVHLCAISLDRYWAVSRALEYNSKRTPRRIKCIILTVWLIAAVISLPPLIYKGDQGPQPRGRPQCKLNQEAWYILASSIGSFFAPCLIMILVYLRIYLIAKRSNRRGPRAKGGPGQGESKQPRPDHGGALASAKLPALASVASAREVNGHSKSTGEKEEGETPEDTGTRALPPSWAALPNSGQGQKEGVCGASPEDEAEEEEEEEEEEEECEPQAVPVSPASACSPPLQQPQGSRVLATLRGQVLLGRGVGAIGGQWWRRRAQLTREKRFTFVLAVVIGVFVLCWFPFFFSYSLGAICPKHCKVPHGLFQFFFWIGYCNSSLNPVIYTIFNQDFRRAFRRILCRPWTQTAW

α2A ADR = target: T2, α2A ADR (Homo sapiens, UniProt P08913); test: DMR in α2A-HEK293 (transient) cells; assay type: cell-based; settings: vs parental HEK293; PAGln 100 μM, B-HT933 50 μM
T2 construct: DYK (FLAG, DYKDDDDK) (N); host or cells: HEK293 (transient, Lipofectamine 3000)
T2 sequence (P08913 1-465): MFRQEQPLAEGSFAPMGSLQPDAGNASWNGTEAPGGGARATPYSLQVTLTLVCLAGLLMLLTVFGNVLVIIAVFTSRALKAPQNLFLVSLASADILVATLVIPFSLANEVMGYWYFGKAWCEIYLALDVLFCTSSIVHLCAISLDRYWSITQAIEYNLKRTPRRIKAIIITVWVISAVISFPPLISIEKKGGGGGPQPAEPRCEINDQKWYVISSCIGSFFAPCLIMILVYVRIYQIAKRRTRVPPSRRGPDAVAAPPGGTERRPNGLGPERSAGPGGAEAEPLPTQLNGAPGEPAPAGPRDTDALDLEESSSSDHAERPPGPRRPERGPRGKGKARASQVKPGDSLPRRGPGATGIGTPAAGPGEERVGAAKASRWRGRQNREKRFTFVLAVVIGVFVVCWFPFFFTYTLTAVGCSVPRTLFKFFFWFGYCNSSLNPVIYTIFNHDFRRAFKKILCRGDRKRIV
Experimental: The cells were grown in DMEM (100 μL) media supplemented with FBS (10%), penicillin (100 U/mL) and streptomycin (100 μg/mL) in a humidified atmosphere at 37° C. in 5% CO2 for 1 day before proceeding for the DMR experiments. For gain of function studies of α2A ADR, parental HEK293 cells were transfected with pcDNA3.1(+)-N-DYK empty vector or with pcDNA3.1(+)-ADRA2A-N-DYK clone (clone id: OHu19050C-GenScript) using Lipofactamine 3000 Transfection kit-Invitrogen (Cat. L3000008). DMR studies were performed on transiently transfected cells after 2 days post transfection. Prior to run the DMR experiment, cells were washed with 1×HBSS buffer with HEPES (20 mM, pH 7.4) and allowed to temperature equilibrate for 1 h at room temperature in 100 μL of the same buffer. Basal DMR response were graphed for around 15 min to obtain a baseline read that defines the zero level and also ensures the signal is stable.

[2] = Metabolism of phenylacetic acid after i.p. injection; assay type: in vivo; settings: intraperitoneal (i.p.) injection in mice
washed human platelets = test: cAMP assay in washed human platelets; assay type: cell-based; settings: pretreatment with modulator
Experimental: Real-time (RT) PCR in MEG01 cells: Total RNA was isolated from MEG01 cells following TRIZOL RNA isolation protocol post 40 h of siRNA transfection. […] Real time (RT) PCR was carried out following TaqMan Gene Expression Assays protocol using RT primers and probes of ADRA2A (assay Id Hs01099503_s1), ADRA2B (assay Id Hs00265081 s1) and ADRB2 (assay Id Hs00240532_s1) from ThermoFisher Scientific. cAMP assay in MEG01, Platelets and HEK293 cells: Intracellular cAMP levels were measured using CatchPoint Cyclic-AMP Fluorescent Assay Kit from molecular devices (Cat. R8089). Briefly, MEG01 cells were washed with 1×HBSS buffer with HEPES (20 mM; pH 7.4) and re-suspended in stimulation buffer (1×HBSS, HEPES (20 mM); pH 7.4, IBMX (0.5 mM), Rolipram (0.1 mM) and BSA (0.1%)). The cells were further seeded into 96 well cell culture plates with a density of ˜100 k cells per well in 100 μL stimulation buffer. Similarly, human washed platelets re-suspended very gently in stimulation buffer and seeded into a 96-well cell culture plates with ˜4-6 million platelets per well in 100 μL stimulation buffer. Both the MEG01 cells and platelets were kept thereafter at 37° C. incubator for 10 min before addition of the inhibitors or test compounds. Following incubation with stimulation buffer, 10 μL (10× concentration) of modulators/inhibitors (when necessary) were added and kept for 15 min at 37° C. […] For the quantification of cAMP, the lysed sample (40 μL), buffer control and cAMP calibrators were added in appropriate wells of a 96-well clear bottom, black wall cAMP assay plates (provided in the kit). […] The plate was covered with aluminum foil and left at room temperature for at least 10 min before reading fluorescence intensity in a FlexStation 3 Multi-Mode Microplate Reader-Molecular devices. […] Intracellular Ca^2+ measurement: Intracellular Ca^2+ in MEG01, HEL92.1.7, parental HEK293, β2-HEK293 (stable) cells, empty vector (EV) transfected HEK293 cells, ADRA2A transfected HEK293 cells and in α2B-HEK293 stable cells was measured using FLIPR Calcium 5 Assay Kit-Molecular devices (Cat. R8186). […]

MEG01 cells [3] = test: cAMP assay in MEG01 cells; assay type: cell-based, human; settings: pretreatment with modulator
Experimental: Real-time (RT) PCR in MEG01 cells: Total RNA was isolated from MEG01 cells following TRIZOL RNA isolation protocol post 40 h of siRNA transfection. […] Real time (RT) PCR was carried out following TaqMan Gene Expression Assays protocol using RT primers and probes of ADRA2A (assay Id Hs01099503_s1), ADRA2B (assay Id Hs00265081 s1) and ADRB2 (assay Id Hs00240532_s1) from ThermoFisher Scientific. cAMP assay in MEG01, Platelets and HEK293 cells: Intracellular cAMP levels were measured using CatchPoint Cyclic-AMP Fluorescent Assay Kit from molecular devices (Cat. R8089). Briefly, MEG01 cells were washed with 1×HBSS buffer with HEPES (20 mM; pH 7.4) and re-suspended in stimulation buffer (1×HBSS, HEPES (20 mM); pH 7.4, IBMX (0.5 mM), Rolipram (0.1 mM) and BSA (0.1%)). The cells were further seeded into 96 well cell culture plates with a density of ˜100 k cells per well in 100 μL stimulation buffer. Similarly, human washed platelets re-suspended very gently in stimulation buffer and seeded into a 96-well cell culture plates with ˜4-6 million platelets per well in 100 μL stimulation buffer. Both the MEG01 cells and platelets were kept thereafter at 37° C. incubator for 10 min before addition of the inhibitors or test compounds. Following incubation with stimulation buffer, 10 μL (10× concentration) of modulators/inhibitors (when necessary) were added and kept for 15 min at 37° C. […] The test compounds were made in buffer T (1×HBSS, HEPES (20 mM); pH 7.4, IBMX (0.5 mM) and Rolipram (0.1 mM)). The reaction was stopped by adding 50 μL of lysis buffer (provided in the kit CatchPoint Cyclic-AMP Fluorescent Assay Kit Cat. R8089-Molecular Devices), further added with IBMX (0.5 mM) and Rolipram (0.1 mM)) and agitated for 10 min in a plate shaker to facilitate cell lysis. Lysed cells are immediately proceeded to cAMP assay. For the quantification of cAMP, the lysed sample (40 μL), buffer control and cAMP calibrators were added in appropriate wells of a 96-well clear bottom, black wall cAMP assay plates (provided in the kit). Thereafter, reconstituted rabbit anti-cAMP antibody (40 μL) was added to all the wells and mix for 5 min on a plate shaker to ensure mixing. In the next step, reconstituted HRP-cAMP conjugate (40 μL) was added to every well, mixed properly and kept at room temperature for 2 h. The plate contents were aspirated thereafter and washed with wash buffer (300 μL (provided in the kit)) 4 times. Spotlight red substrate (provided in the kit) was added to each well minimizing the time between starting and finishing in dark. The plate was covered with aluminum foil and left at room temperature for at least 10 min before reading fluorescence intensity in a FlexStation 3 Multi-Mode Microplate Reader-Molecular devices. […] For cAMP assay in adherent cell lines, parental HEK293, and β2-HEK293 (stable) cells were seeded into 96-well cell culture microplates with approximately 50 k cells per well in DMEM (100 μL) media supplemented with FBS (10%), penicillin (100 U/mL) and streptomycin (100 μg/mL) in a humidified atmosphere at 37° C. in 5% CO2. Cells were grown for 24 h before proceeding for cAMP experiment following similar method as described for MEG01 cells. Intracellular Ca^2+ measurement: Intracellular Ca^2+ in MEG01, HEL92.1.7, parental HEK293, β2-HEK293 (stable) cells, empty vector (EV) transfected HEK293 cells, ADRA2A transfected HEK293 cells and in α2B-HEK293 stable cells was measured using FLIPR Calcium 5 Assay Kit-Molecular devices (Cat. R8186). […]

For `NC[C@H](O)c1ccc(O)c(O)c1` [norepinephrine], the DMR dose-response signal (HEL92.1.7 cells) was “like norepinephrine” and the “DMR dose response curves” value (MEG01 cells [1]; increasing concentrations) was “saturable and specific DMR dose response curves”.
With `CCN1CCc2nc(N)oc2CC1` [B-HT933] the “agonist-evoked DMR response” value (α2B ADR) was “elevated B-HT933-elicited DMR response” and the “agonist-evoked DMR response” value (α2A ADR) was “elevated B-HT933-elicited DMR response”.
With `O=C(O)Cc1ccccc1` [phenylacetic acid] the metabolic fate [2] was “predominantly metabolized into PAGly”.
In the case of `CN=c1nc(-c2ccccc2)n(-c2ccccc2)s1` [SCH-202676], the “PAGln-induced DMR response after G-protein modulators” value (MEG01 cells [1]; PAGln 100 μM, PTX 100 ng/mL, CTX 1 μg/mL, YM-254890 0.5 μM, SCH-202676 1 μM) is reported as “significantly reduced”, the “PAGln-evoked cAMP production after GPCR modulators” value (washed human platelets) is reported as “inhibited PAGln-evoked cAMP production” and the “PAGln-evoked cAMP production after GPCR modulators” value (MEG01 cells [3]) is reported as “inhibited PAGln-evoked cAMP production”.
With `N[C@@H](Cc1ccccc1)C(=O)O` [phenylalanine] the DMR response (MEG01 cells [1]; addition of ligand) was “displayed no DMR response”.
